This is an account of results in patent US10947243B2, “Heteroaryl SYK inhibitors” (Boehringer Ingelheim International GmbH, priority 2014, dated 2021).

The target in data set [1] is Recombinant human Aurora B (amino acids 1-344) (Homo sapiens (Human), UniProt Q96GD4). Description: Aurora B Kinase Test (ADP Glo luminescence). It counts as biochemical. On the procedure:
The activity of the Aurora B kinase protein was determined using the ADP Glo® Luminescence Kinase test (Promega; V9103X).
Serial Dilution is done in 1:10 steps in 100% DMSO.
Then 20 μl Kinase detection mix (Detection Buffer #V913B Promega; Kinase Detection Substrate #V914B Promega) were added and incubated for 40 minutes at room temperature.
(§1) The output file of the reader is a csv file that contains the well number and measured RLU. For data evaluation and calculation, the measurement of the negative control was set as 0% ctrl and the measurement of the positive control was set as 100% ctrl. Based on this values the % value for the measurement of each substance concentration was calculated using an Assay Explorer software (Accelrys). Normally, the % ctrl values calculated are between 0% and 100% values but may also occur outside these limits in individual cases based on variability or compound characteristics. The IC50 values were calculated from the % ctrl values using Assay Explorer software. Calculation: [y=(a−d)/(1+(x/c)^b)+d], a=low value, d=high value; x=conc M; c=IC50 M; b=hill; y=% ctrl.
In general terms: ADP-Glo turns the ADP formed in a reaction into a luminescent signal.

Data set [2] in a line: Human Liver Microsomal Stability Test. The data set is classed as in vitro ADME. As to conditions: human liver microsomes. Here is the method: The metabolic degradation for a specific SYK-inhibitor is performed at 37° C. with pooled human liver microsomes (human liver microsomes are commercially available as “BD UltraPool™” by Corning Life Sciences, Fogostraat 12, 1060 LJ Amsterdam, The Netherlands). The final incubation volume of 100 μl per time point contains TRIS buffer pH 7.6 at RT (0.1 M), magnesium chloride (5 mM), microsomal protein (1 mg/ml) and the test compound at a final concentration of 1 μM.
Following a short preincubation period at 37° C., the reaction is initiated by addition of beta-nicotinamide adenine dinucleotide phosphate in its reduced form (NADPH, 1 mM) and terminated by transfering an aliquot into solvent after different time points. Additionally, the NADPH-independent degradation is monitored in incubations without NADPH, terminated at the last time point.
The quenched (terminated) incubations are then pelleted by centrifugation (10000 g, 5 min).
An aliquot of the supernatant is assayed by LC-MS/MS for the remaining amount of parent compound. The half-life (t½ INVITRO) is determined by the slope of the semilogarithmic plot of the concentration-time profile.
The intrinsic clearance (CL_[…]) is calculated by considering the amount of protein in the incubation: CL_[…] [μl/min/mg protein]=(Ln 2/(t½INVITRO [min]*protein content [mg/ml]))*1000
The protein content [mg/ml] was determined with the “Bicinchoninic Acid Kit” of Sigma Aldrich (commercially available).
The upscaled intrinsic Clearance (CL_UP_INT) is calcuated by considering the liver weight [g liver/kg body weight] and the microsomal recovery [mg protein/g liver]: CL_UP_INT [ml/min/kg]=0.001*CL_[…]*liver weight*microsomal recovery • with microsomal recovery=45 mg protein/g liver • with liver weight=25.7 g liver/kg body weight
The percent hepatic blood flow (% Qh) is finally calculated by considering the human liver blood flow Q [ml/min/kg]: % Qh [%]=((Q*CL_UP_INT)/(Q+CL_UP_INT)/Q)*100 • with liver blood flow (Q)=20.7 ml/min/kg.
For orientation: Liver microsomes are a subcellular fraction often used to study metabolism.

Data set [3] concerns the target Recombinant human Syk (amino acids 342-635) (Homo sapiens (Human), UniProt P43405). Put plainly: Syk Kinase Test (Kinase Glo luminescence). It counts as biochemical. Here is the method:
as §1, with “measured relative light units (RLU).” for “measured RLU.”, “as 100%” for “as 0%”, “as 0%” for “as 100%”, “Calculation: [y=(a−d)/(1+(x/c)^b)+d]” for “Calculation: [y=(a−d)/(1+(x/c)^b)+d],”
(In Kinase-Glo more light means more ATP remaining.)

The target in the next data set is FLT3 (Homo sapiens (Human), UniProt P36888). Put plainly: FLT3 Kinase Test (Z'-LYTE). It counts as biochemical. On the procedure:
The activity of FLT3 is measured using the Z′-LYTE™ assay technology from Invitrogen (#PV3191)
The reaction is started by addition of 2.5 μl of the 4×ATP solution.
Positive controls are reaction mixtures containing no test compound; negative controls (blanks) are reaction mixtures containing no kinase. As a further control, the phosphopeptide solution is added to wells without kinase (=100% phosphorylation control).
The reaction is performed for 1 h at room temperature before 5 μl of the development solution is added. After a further incubation for 1 h at room temperature 5 μl of the stop reagent is added.
The output text file is evaluated in an “MS-Excel-VB-Makro” and “GraphPadPrism” (Version 5) (GraphPad Software Inc.) is used to calculate the results. Data for the inhibition of FLT3 are reported in M. data for the inhibition of the protease are reported in % CTL.

The target in another data set is Human GSK3beta (Homo sapiens (Human), UniProt P49841). Put plainly: GSK 3β Kinase-Test (Z'-LYTE). It counts as biochemical. The settings on record: comparison compounds, Example numbers of WO 2013/014060; read-out: IC50 in μM (GSK3beta-Inhibition). Here is the method:
Human GSK3beta (expressed and prified from SF21 cells) is obtained from the University Dundee/Scotland (Dr. James Hastie—Dept. of Biochemistry) in 50 mM Tris (pH7.5); 150 mM NaCl; 0.1 mM EGTA, 270 mM Succrose, 0.1% B-mercaptoethanol, 1 mM benzamidine, 0.2 mM PMSF; sequence see below). The enzyme is diluted to 3.56 μM (168 μg/ml) in enzyme dilution buffer and 6 μl aliquots are stored at −80° C.
The activity of GSK3 kinase protein is measured using the Z′-LYTE™ assay technology from Invitrogen (# PV3324).
The assay is performed in 384 black plates from Corning (#3676) in a final volume of 10 μl by adding 5 μl of kinase peptide mix and 2.5 μl of compound dilution. The reaction is started by addition of 2.5 μl of the 4×ATP solution.
Positive controls are reaction mixtures containing no test compound; negative controls (blanks) are reaction mixtures containing no ATP. As a further control, the phosphopeptide solution is added to wells without kinase and without ATP (=100% phosphorylation control). The non inhibited kinase reaction will result in a phosphorylation corresponding to 20%-30% of the phosphorylation control.
The reaction is performed 1 h at room temperature. After 1 h 5 μl of the development solution is added. After a further incubation for 1 h at room temperature 5 μl of the stop reagent is added. Finally the plates are read on a Flex Station II 384 (Molecular Devices).
The output text file is evaluated in an “MS-Excel-VB-Makro” and “GraphPadPrism” (Version 5) (GraphPad Software Inc.) is used to calculate the results. Data for the inhibition of GSK3beta are reported in M. data for the inhibition of the protease are reported in % CTL.

Where [4] appears, read: comparison compounds, Example numbers of WO 2013/014060, read-out: IC50 in μM (AURB-Inhibition).
Where [5] appears, read: comparison compounds, Example numbers of WO 2013/014060.
Where [6] appears, read: compounds of the invention (own Example numbers).
Setting [7] is: comparison compounds, Example numbers of WO 2013/014060, read-out: IC50 in μM (SYK-Inhibition).
Setting [8] is: comparison compounds, Example numbers of WO 2013/014060, read-out: IC50 in μM (FLT3-Inhibition).

Read-outs that look alike come from different tables or passages of the source.

Human GSK3beta, sequence (P49841 whole entry): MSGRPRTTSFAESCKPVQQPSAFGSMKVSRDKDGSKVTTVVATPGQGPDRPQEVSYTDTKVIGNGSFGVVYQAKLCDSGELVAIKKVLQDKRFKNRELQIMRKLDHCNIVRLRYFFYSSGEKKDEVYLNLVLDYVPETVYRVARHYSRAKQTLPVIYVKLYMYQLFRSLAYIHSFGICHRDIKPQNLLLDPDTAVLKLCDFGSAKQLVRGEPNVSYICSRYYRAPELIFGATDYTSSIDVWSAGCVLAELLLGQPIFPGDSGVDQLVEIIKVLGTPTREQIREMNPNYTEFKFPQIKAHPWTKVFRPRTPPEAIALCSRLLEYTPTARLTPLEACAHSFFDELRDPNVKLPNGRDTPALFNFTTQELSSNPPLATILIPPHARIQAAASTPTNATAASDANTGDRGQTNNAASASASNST
FLT3, sequence (P36888 564-958): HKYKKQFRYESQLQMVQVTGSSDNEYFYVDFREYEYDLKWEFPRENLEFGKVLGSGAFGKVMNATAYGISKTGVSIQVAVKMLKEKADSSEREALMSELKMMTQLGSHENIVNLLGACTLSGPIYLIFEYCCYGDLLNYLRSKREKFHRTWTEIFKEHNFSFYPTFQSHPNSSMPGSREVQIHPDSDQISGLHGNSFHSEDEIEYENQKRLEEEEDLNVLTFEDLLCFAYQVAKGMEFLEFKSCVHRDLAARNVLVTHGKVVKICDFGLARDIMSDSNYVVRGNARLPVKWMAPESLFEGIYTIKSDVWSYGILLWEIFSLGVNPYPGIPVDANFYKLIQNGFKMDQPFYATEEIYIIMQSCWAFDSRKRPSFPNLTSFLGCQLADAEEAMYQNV
Recombinant human Aurora B (amino acids 1-344), sequence (Q96GD4 whole entry, the tested form may be a part): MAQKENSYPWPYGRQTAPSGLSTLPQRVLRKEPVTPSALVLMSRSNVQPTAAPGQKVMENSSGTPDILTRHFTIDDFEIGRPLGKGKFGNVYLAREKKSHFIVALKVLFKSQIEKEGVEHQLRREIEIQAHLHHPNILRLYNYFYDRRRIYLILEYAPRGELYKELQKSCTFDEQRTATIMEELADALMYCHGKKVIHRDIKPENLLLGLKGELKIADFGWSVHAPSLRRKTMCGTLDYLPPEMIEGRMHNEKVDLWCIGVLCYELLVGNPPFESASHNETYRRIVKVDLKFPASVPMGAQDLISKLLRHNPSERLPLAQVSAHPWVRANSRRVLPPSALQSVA

The term IC50 denotes the midpoint of a concentration-inhibition curve. For `C[C@@H](Oc1nc(-c2cnn(C(C)(C)C)c2)cc2nn(C)cc12)[C@H]1CNC(=O)C1` [Example 2, (4R)-4-[(1R)-1-[6-(1-tert-Butylpyrazol-4-yl)-2-methyl-pyrazolo[4,3-c]pyridin-4-yl]oxyethyl]pyrrolidin-2-one], the figures for the IC50 (in data set [1] (setting [4]); in data set [3] (setting [7]); at FLT3 (setting [8])) were 16.9 µM, 0.007 µM and 7.39 µM, respectively. Further, the “microsomal stability Cl [% Qh]” value is listed as 81 % Qh in data set [2] (setting [5]) and under 23 % Qh in data set [2] (setting [6]).
Turning to `CC(C)n1cc(-c2cc(O[C@H](C)[C@H]3CNC(=O)C3)c3cccnc3c2)cn1` [compound 115], the IC50 in data set [1] (setting [4]) is 0.021 µM; in data set [3] (setting [7]) it was 0.0002 µM; at Human GSK3beta, over 10 µM; at FLT3 (setting [8]), 0.041 µM. For the same compound, the “microsomal stability Cl [% Qh]” value in data set [2] (setting [5]) is listed as under 23 % Qh.
As to `C[C@@H](Oc1cc(-c2ccc(C3CCN(C)CC3)cc2)cc2nn(C)cc12)[C@H]1CNC(=O)C1` [Example 42, (4R)-4-[(1R)-1-[2-methyl-6-[4-(1-methyl-4-piperidyl)-phenyl]indazol-4-yl]oxyethyl]-pyrrolidin-2-one], the IC50 was 0.63 µM in data set [1] (setting [4]), 0.002 µM in data set [3] (setting [7]) and 0.618 µM at FLT3 (setting [8]). Moreover, the “microsomal stability Cl [% Qh]” value in data set [2] (setting [5]) and in data set [2] (percent hepatic blood flow) was under 23 % Qh in each case.
For the compound `C[C@@H](Oc1nc(-c2ccc(C(F)(F)F)nc2)cc2nn(C)cc12)[C@H]1CNC(=O)C1` [Example 61, (4R)-4-[(1R)-1-[2-methyl-6-[6-(trifluoromethyl)-3-pyridyl]pyrazolo[4,3-c]pyridin-4-yl]oxyethyl]pyrrolidin-2-one], the IC50 in data set [1] (setting [4]) amounted to 0.25 µM; in data set [3] (setting [7]), 0.002 µM; on FLT3 (setting [8]), 0.411 µM. Further, the “microsomal stability Cl [% Qh]” value in data set [2] (setting [5]) and in data set [2] (percent hepatic blood flow) was under 23 % Qh each time.
In the case of `C[C@@H](Oc1cc(-c2ccc(F)cn2)cc2nn(C)cc12)[C@H]1CNC(=O)C1` [Example 41, (4R)-4-[(1R)-1-[6-(5-fluoro-2-pyridyl)-2-methyl-indazol-4-yl]oxyethyl]pyrrolidin-2-one], the values for the IC50 (in data set [1] (setting [4]); in data set [3] (setting [7]); on FLT3 (setting [8])) were 0.308 µM, 0.001 µM and 0.505 µM, respectively. In addition, the figures for the “microsomal stability Cl [% Qh]” value in data set [2] (setting [5]) and in data set [2] (percent hepatic blood flow) were 37 % Qh and under 23 % Qh, respectively.
`COc1cc(-c2cc3nn(C)cc3c(O[C@H](C)[C@H]3CNC(=O)C3)n2)ccc1OC(C)C` [Example 81, (4R)-4-[(1R)-1-[6-(4-isopropoxy-3-methoxy-phenyl)-2-methyl-pyrazolo-[4,3-c]pyridin-4-yl]oxyethyl]-pyrrolidin-2-one]: the IC50 in data set [1] (setting [4]) was found to be 0.949 µM; in data set [3] (setting [7]) it was 0.003 µM; on FLT3 (setting [8]), 0.514 µM. Also, the “microsomal stability Cl [% Qh]” value in data set [2] (setting [5]) and in data set [2] (setting [6]) was under 23 % Qh throughout.
`COc1cc(-c2cc3nn(C)cc3c(O[C@H](C)[C@H]3CNC(=O)C3)n2)ccc1O` [Example 8, (4R)-4-[(1R)-1-[6-(4-Hydroxy-3-methoxy-phenyl)-2-methyl-pyrazolo[4,3-c]pyridin-4-yl]oxyethyl]pyrrolidin-2-one]: the IC50 amounted to 0.643 µM in data set [1] (setting [4]) and 0.369 µM on FLT3 (setting [8]). The “microsomal stability Cl [% Qh]” value is 77 % Qh in data set [2] (comparison compounds, Example numbers of WO 2011/092128); 58 % Qh in data set [2] (setting [5]); under 23 % Qh in data set [2] (setting [6]).
On to `COc1ccc(-c2cc3nn(C)cc3c(O[C@H](C)[C@H]3CNC(=O)C3)n2)cc1OC` [Example 1, (4R)-4-[(1R)-1-[6-(3,4-Dimethoxyphenyl)-2-methyl-pyrazolo[4,3-c]pyridin-4-yl]oxyethyl]pyrrolidin-2-one], for which the IC50 was 5.09 µM in data set [1] (comparison compounds, Example numbers of WO 2011/092128, read-out: IC50 in μM (AURB-Inhibition)); 0.009 µM in data set [3] (comparison compounds, Example numbers of WO 2011/092128, read-out: IC50 in μM (SYK-Inhibition)); 1.53 µM at FLT3 (comparison compounds, Example numbers of WO 2011/092128, read-out: IC50 in μM (FLT3-Inhibition)). In addition, the “microsomal stability Cl [% Qh]” value in data set [2] (setting [6]) is given as under 23 % Qh.
With `C[C@@H](Oc1cc(-c2cscn2)cc2nn(C)cc12)[C@H]1CNC(=O)C1` [Example 29, (4R)-4-[(1R)-1-(2-methyl-6-thiazol-4-yl-indazol-4-yl)oxyethyl]pyrrolidin-2-one], the results for the IC50 (in data set [1] (read-out: AURB-inhibition IC50-value); in data set [1] (read-out: IC50 in μM (AURB-Inhibition)); on Human GSK3beta) were over 50 µM, 0.293 µM and over 10 µM, respectively. Further, in data set [2] (setting [5]), the “microsomal stability Cl [% Qh]” value worked out at 44 % Qh.
“(4R)-4-[(1R)-1-[2-methyl-6-(3-methyl-1-tetrahydropyran-4-yl-pyrazol-4-yl)pyrazolo-[4,3-c]pyridin-4-yl]oxyethyl]-pyrrolidin-2-one [Example 79]”: the IC50 in data set [3] (read-out: SYK-inhibiton IC50-value) stood at 0.0364 µM; on FLT3 (read-out: FLT3-inhibition IC50-value) it was 26.7 µM.
On to `CCCn1cc(-c2cc(O[C@H](C)[C@H]3CNC(=O)C3)c3cccnc3c2)cn1` [compound 114], for which the IC50 in data set [1] (setting [4]) was 2.54 µM; on Human GSK3beta, over 10 µM; on FLT3 (setting [8]), 0.049 µM. The “microsomal stability Cl [% Qh]” value in data set [2] (setting [5]) is 26 % Qh.
